From paper PMC9467581 (Journal of Enzyme Inhibition and Medicinal Chemistry, 2022)
Structures can show the parent of a compound that is named as a salt. Where two headings read alike, the source gives them in different places.

Key:
[1] = target: T1, eeAChE (AChE from Electrophorus electricus) (Electrophorus electricus, UniProt O42275); test: biochemical; conditions: [S] = 121 µM; mean ± SD
Experimental: (§1) The inhibitory activity of 12a–12d against AChE and BuChE was carried out following minor modifications of the Ellman assay,[30] as reported previously[31] using Thermo Scientific^TM Varioskan^TM LUX microplate reader and Greiner F-bottom 96-well plates.

[2] = target: T2, eqBuChE (BuChE from equine serum) (Equus caballus, UniProt P81908); test: biochemical; format: biochemical; conditions: for BuChE selectivity: IC50(AChE)/IC50(BuChE); for IC50: [S] = 112 µM, mean ± SD
T2 construct: eqBuChE (BuChE from equine serum); from tissue; host or cells: equine serum
T2 sequence (P81908 whole entry): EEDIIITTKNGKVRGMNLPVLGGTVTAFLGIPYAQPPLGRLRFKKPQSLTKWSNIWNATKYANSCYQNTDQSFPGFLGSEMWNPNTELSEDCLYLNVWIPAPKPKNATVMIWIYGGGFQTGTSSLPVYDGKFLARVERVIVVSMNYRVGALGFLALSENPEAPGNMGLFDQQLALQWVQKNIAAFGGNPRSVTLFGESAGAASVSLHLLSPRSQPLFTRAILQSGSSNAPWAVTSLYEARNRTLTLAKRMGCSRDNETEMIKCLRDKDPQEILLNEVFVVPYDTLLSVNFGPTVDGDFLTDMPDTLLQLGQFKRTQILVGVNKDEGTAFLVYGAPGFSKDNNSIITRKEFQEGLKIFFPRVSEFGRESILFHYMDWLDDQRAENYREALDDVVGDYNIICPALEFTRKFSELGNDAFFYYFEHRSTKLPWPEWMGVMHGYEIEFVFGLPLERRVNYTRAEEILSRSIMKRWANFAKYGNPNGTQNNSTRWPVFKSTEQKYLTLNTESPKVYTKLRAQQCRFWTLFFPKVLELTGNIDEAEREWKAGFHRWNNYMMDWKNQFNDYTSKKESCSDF
Experimental: as §1

[3] = target: AChE; conditions: mixed inhibition of AChE; cited from earlier work
[4] = target: BuChE; set-up: method as in PMID 33228403; conditions: mixed inhibition of BuChE; cited from earlier work
[5] = target: T1, eeAChE (AChE from Electrophorus electricus); conditions: [S] = 121 µM; cited from earlier work

T1 sequence (O42275 24-633): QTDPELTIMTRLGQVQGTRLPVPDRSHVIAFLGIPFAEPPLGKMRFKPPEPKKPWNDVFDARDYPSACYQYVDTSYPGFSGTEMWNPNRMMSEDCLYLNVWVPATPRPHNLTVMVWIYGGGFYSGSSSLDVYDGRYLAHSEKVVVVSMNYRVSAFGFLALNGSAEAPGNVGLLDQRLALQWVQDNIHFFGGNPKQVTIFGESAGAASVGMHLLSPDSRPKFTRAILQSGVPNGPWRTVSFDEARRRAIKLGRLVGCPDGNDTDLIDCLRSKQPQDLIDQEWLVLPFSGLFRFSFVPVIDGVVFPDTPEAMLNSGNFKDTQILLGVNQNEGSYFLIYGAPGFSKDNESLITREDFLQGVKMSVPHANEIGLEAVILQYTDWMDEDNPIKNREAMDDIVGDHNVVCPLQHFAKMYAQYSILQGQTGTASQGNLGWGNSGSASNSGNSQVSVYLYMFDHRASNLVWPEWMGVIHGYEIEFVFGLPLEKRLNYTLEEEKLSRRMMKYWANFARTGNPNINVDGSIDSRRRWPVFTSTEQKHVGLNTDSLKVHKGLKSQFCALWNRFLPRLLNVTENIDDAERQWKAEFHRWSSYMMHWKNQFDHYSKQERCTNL

| SMILES | IC50 [1] | BuChE selectivity [2] | IC50 [2] | further results |
| --- | --- | --- | --- | --- |
| OC[C@@H]1[C@@H](O)[C@H](O)[C@@H](O)CN1CCCn1cc(Cn2nnc3ccccc32)nn1 [Compound 12a] | > 500 µM | >10 | 50 ± 3 µM |  |
| OC[C@@H]1[C@@H](O)[C@H](O)[C@@H](O)CN1CCCCCNC(=[Se])Nc1ccc(Br)cc1 [Compound 8] |  |  |  | Ki [3]: 5.8 µM |
| COc1ccc(CCOCCCCCCN2C[C@H](O)[C@@H](O)[C@H](O)[C@H]2CO)cc1OC [Compound 10] |  |  |  | Ki [4]: 1.4 µM; αKi [4]: 4.5 µM |
| OC[C@H]1NC[C@H](O)[C@@H](O)[C@@H]1O [Compound 4, 1-deoxynojirimycin, reference compound] |  | >10 |  | IC50 [5]: > 100 µM |
| OC[C@@H]1[C@@H](O)[C@H](O)[C@@H](O)CN1Cc1cn(CCCCCCNc2c3c(nc4ccccc24)CCCC3)nn1 [Compound 9] |  |  |  | Ki [3]: 0.0071 µM; αKi [3]: 17.4 nM |
| OC[C@@H]1[C@@H](O)[C@H](O)[C@@H](O)CN1CCCCCCCCCCn1cc(Cn2nnc3ccccc32)nn1 [Compound 12d, N-(1-(2-((1H-benzo[1,2,3]triazol-1-yl)methyl)-1H-1,2,3-triazol-1-yl)decyl)-1-deoxynojirimycin hydrochloride] | > 500 µM |  | 17 ± 0.7 µM |  |
| OC[C@@H]1[C@@H](O)[C@H](O)[C@@H](O)CN1CCCCCCn1cc(Cn2nnc3ccccc32)nn1 [Compound 12b] | 65 ± 2 µM | 9.7 | 6.7 ± 0.7 µM | fold more potent BuChE inhibitor than 1-DNJ [2]: 1.5 fold; uncompetitive inhibition constant αKi ([2]; BuChE, Cornish-Bowden plots): 12 ± 1 µM; type of inhibition ([2]; BuChE, Cornish-Bowden plots (1/V vs. [I] and [S]/V vs. [I])): mixed inhibitor; Ki ([2]; BuChE, Cornish-Bowden plots, read-out: competitive inhibition constant Ki): 4.9 ± 0.4 µM |
| OC[C@@H]1[C@@H](O)[C@H](O)[C@@H](O)CN1CCCCCCCCn1cc(Cn2nnc3ccccc32)nn1 [Compound 12c, N-(1-(2-((1H-benzo[1,2,3]triazol-1-yl)methyl)-1H-1,2,3-triazol-1-yl)octyl)-1-deoxynojirimycin hydrochloride] | > 500 µM | >19 | 26 ± 0.7 µM |  |
